Assay results as given in paper PMC4358806 (European Journal of Medicinal Chemistry, 2013).
Like-named read-outs stand apart in the source and are kept apart here.

Legend:
tumor cell lines = test: Cytostatic activity, ranges over several tumor cell lines; format: cell-based
Huh 7 cells = conditions: cited from earlier work
HCV replicon (type 1b) [1] = conditions: read-out: EC50 HCV replicon, Huh 7 cells; cited from earlier work
[2] = system: HEL and CrFK cell cultures; test: Cytotoxicity; format: cell-based
Feline herpes virus = test: organism not typed; format: cell-based; conditions: read-out: EC50 Feline herpes virus
[3] = system: human and feline herpes viruses; test: organism not typed; format: cell-based; conditions: read-out: EC50 against human and feline herpes viruses
HCV replicon (type 1b) [4] = test: HCV replicon assay; format: cell-based; conditions: L-alanine vs D-alanine derivative
HIV-2(ROD) = format: cell-based
HIV-1(IIIB) = format: cell-based
HIV-1 and HIV-2 = format: cell-based
[5] = Cytotoxicity in HCV replicon assay, Huh 7 cells; format: cell-based; conditions: human, Huh 7 cells (HCV replicon type 1b)
carboxypeptidase Y = target: T1, carboxypeptidase Y (Saccharomyces cerevisiae, UniProt P00729); test: Carboxypeptidase Y-mediated cleavage monitored by 31P NMR; format: in vitro ADME; conditions: d6-acetone and Trizma buffer pH 7.6, room temperature
T1 sequence (P00729 112-532): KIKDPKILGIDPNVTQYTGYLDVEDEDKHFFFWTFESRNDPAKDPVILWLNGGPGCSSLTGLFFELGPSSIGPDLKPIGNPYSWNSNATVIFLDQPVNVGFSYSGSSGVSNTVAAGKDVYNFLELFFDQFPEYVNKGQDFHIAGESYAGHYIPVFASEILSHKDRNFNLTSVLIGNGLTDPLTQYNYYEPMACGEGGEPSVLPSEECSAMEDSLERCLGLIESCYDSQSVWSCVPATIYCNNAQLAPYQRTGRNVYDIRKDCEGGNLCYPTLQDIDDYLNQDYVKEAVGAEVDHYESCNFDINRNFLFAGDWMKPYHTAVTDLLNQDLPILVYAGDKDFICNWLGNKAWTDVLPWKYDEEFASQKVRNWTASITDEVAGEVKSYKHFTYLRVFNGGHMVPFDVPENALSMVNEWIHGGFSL

HIV-1 (X4LAI.04) = test: microbe, parasite or virus in culture; format: cell-based
[6] = system: HeLa (human cervical carcinoma cells); format: cell-based; conditions: read-out: IC50 (50% inhibitory concentration), proliferation
[7] = system: Herpes simplex virus 1TK−(KOS)ACVr; format: cell-based, herpes simplex virus type 1; conditions: read-out: EC50 Herpes simplex virus 1TK−(KOS)ACVr
[8] = system: L1210 (mouse lymphocytic leukemia cells); format: cell-based; conditions: read-out: IC50 (50% inhibitory concentration), proliferation
[9] = system: Herpes simplex virus 1(KOS); format: cell-based, herpes simplex virus type 1; conditions: read-out: EC50 Herpes simplex virus 1(KOS)
[10] = system: CEM (human T-lymphocyte cells); format: cell-based; conditions: read-out: IC50 (50% inhibitory concentration), proliferation
HeLa/TK− cells = format: cell-based, human; conditions: read-out: IC50 (50% inhibitory concentration), proliferation
[11] = system: Herpes simplex virus 2 (G); format: cell-based, herpes simplex virus type 2; conditions: read-out: EC50 Herpes simplex virus 2 (G)
[12] = read-out: IC50, range over all tested tumor cell lines
[13] = read-out: IC50, range over cell lines

## Nc1ccn([C@@H]2CS[C@H](CO)O2)c(=O)n1 [Compound 5, lamivudine, reference compound]
Tumor cell lines; [12]
  IC50: > 250 µM

## [N-]=[N+]=N[C@]1(CO)O[C@@H](n2ccc(=O)[nH]c2=O)[C@H](O)[C@@H]1O [Compound 7, 4′-azidouridine]
Huh 7 cells
  CC50: > 100 µM
HCV replicon (type 1b) [1]
  EC50: > 100 µM

## [N-]=[N+]=N[C@]1(CO)O[C@@H](n2ccc(N)nc2=O)[C@H](O)[C@@H]1O [Compound 8, 4′-azidocytidine]
Huh 7 cells
  CC50: > 100 µM
HCV replicon (type 1b) [1]
  EC50: 7.13 µM

## NC(=O)c1ncn([C@@H]2O[C@H](CO)[C@@H](O)[C@H]2O)n1 [Compound 9, ribavirin]
Huh 7 cells
  CC50: > 100 µM
HCV replicon (type 1b) [1]
  EC50: 87 µM

## Nc1nc2c(ncn2COCCO)c(=O)[nH]1 [Compound 10, acyclovir, reference compound]
[2]
  MCC (cytotoxicity): >100 µM
Huh 7 cells
  CC50: > 30 µM
HCV replicon (type 1b) [1]
  EC50: 30 µM
Feline herpes virus
  EC50: > 100 µM

## NC(=O)c1ncn([C@@H]2O[C@H](CO)[C@@H](O)[C@H]2O)c1N [Compound 13, acadesine, reference compound]
[2]
  MCC (cytotoxicity): >100 µM
[3]
  EC50: > 100 µM
Feline herpes virus
  EC50: > 100 µM

## CCOc1nc(N)nc2c1ncn2[C@@H]1O[C@H](COP(=O)(N[C@@H](C)C(=O)OCC(C)(C)C)N[C@@H](C)C(=O)OCC(C)(C)C)[C@@H](O)[C@@]1(C)F [Compound 14, (2R,3R,4R,5R)-5-(2-amino-6-ethoxy-9H-purin-9-yl)-4-fluoro-2-(hydroxymethyl)-4-methyltetrahydrofuran-3-ol-5′-O-bis-(2,2-dimethylpropoxy-L-alaninyl)-phosphate]
HCV replicon (type 1b) [4]
  improved anti-HCV activity compared to 15: 4 fold

## C[C@H](NP(=O)(N[C@@H](C)C(=O)OCC(C)(C)C)OC[C@@H]1CC[C@H](n2cnc3c(N)ncnc32)O1)C(=O)OCC(C)(C)C [Compound 19, ddA-5′-O-bis-(2,2-dimethylpropoxy-L-alaninyl)-phosphate]
Tumor cell lines; [13]
  IC50: 35 to 76 µM
HIV-2(ROD)
  boost of activity compared to parent nucleoside, HIV-2: 57 fold
HIV-1(IIIB)
  boost of activity compared to parent nucleoside, HIV-1: 72 fold

## Cc1cn([C@H]2C[C@H](N=[N+]=[N-])[C@@H](COP(=O)(N[C@@H](C)C(=O)OCc3ccccc3)N[C@@H](C)C(=O)OCc3ccccc3)O2)c(=O)[nH]c1=O [Compound 20, 3′-azido-3′-deoxythymidine-5′-O-bis(benzoxy-L-alaninyl)-phosphate]
HIV-1 and HIV-2
  anti-HIV activity compared to the parent: equipotent to the parent

## C[C@H](NP(=O)(N[C@@H](C)C(=O)OCc1ccccc1)OC[C@H]1O[C@@H](n2ccc(N)nc2=O)CS1)C(=O)OCc1ccccc1 [Compound 25, 3TC-5′-O-bis(benzoxy-L-alaninyl)-phosphate]
Tumor cell lines; [12]
  IC50: 38 to 116 µM

## C[C@H](NP(=O)(N[C@@H](C)C(=O)OCc1ccccc1)OC[C@H]1O[C@@H](n2cnc(C(N)=O)n2)[C@H](O)[C@@H]1O)C(=O)OCc1ccccc1 [Compound 30, ribavirin-5′-O-bis(benzoxy-L-alaninyl)-phoshate]
[5]
  CC50: > 100 µM

## C[C@H](NP(=O)(N[C@@H](C)C(=O)OCc1ccccc1)OCCOCn1cnc2c(=O)[nH]c(N)nc21)C(=O)OCc1ccccc1 [Compound 32, acyclovir-5′-O-bis[(benzoxy-L-alaninyl)]-phosphate]
Carboxypeptidase Y
  time to full conversion into metabolite: 7.5 h
[2]
  MCC (cytotoxicity): >100 µM
HIV-1 (X4LAI.04)
  boost in activity compared to ACV, HIV-1: > 60 fold
HIV-1 (X4LAI.04); Human immunodeficiency virus 1, MT4, 72 h, read-out: EC50 HIV-1
  EC50: 2 to 4 µM
Feline herpes virus
  EC50: > 100 µM

## C[C@H](NP(=O)(N[C@@H](C)C(=O)OCC(C)(C)C)OCCOCn1cnc2c(=O)[nH]c(N)nc21)C(=O)OCC(C)(C)C [Compound 33, acyclovir-5′-O-bis[(2,2-dimethylpropoxy-L-alaninyl)]-phosphate]
[2]
  MCC (cytotoxicity): >100 µM
HIV-1 (X4LAI.04)
  boost in activity compared to ACV, HIV-1: > 60 fold
Feline herpes virus
  EC50: > 100 µM

## C[C@H](NP(=O)(N[C@@H](C)C(=O)OCc1ccccc1)OC[C@@H]1C=C[C@H](n2cnc3c(NC4CC4)nc(N)nc32)C1)C(=O)OCc1ccccc1 [Compound 34, abacavir-5′-O-bis(benzoxy-L-alaninyl)-phosphate]
Tumor cell lines; [13]
  IC50: 19 to 54 µM

## C[C@H](NP(=O)(N[C@@H](C)C(=O)OCC(C)(C)C)OC[C@@H]1C=C[C@H](n2cnc3c(NC4CC4)nc(N)nc32)C1)C(=O)OCC(C)(C)C [Compound 35, abacavir-5′-O-bis-(2,2-dimethylpropoxy-L-alaninyl)-phosphate]
Tumor cell lines; [13]
  IC50: 19 to 54 µM

## CCCCCc1ccc(-c2cc3cn([C@H]4C[C@H](O)[C@@H](COP(=O)(N[C@@H](C)C(=O)OCc5ccccc5)N[C@@H](C)C(=O)OCc5ccccc5)O4)c(=O)nc3o2)cc1 [Compound 36, 3-(2′-deoxy-β-D-ribofuranosyl)-6-(4-n-pentylphenyl)-2,3-dihydrofuro-[2,3-d]pyrimidin-2-one-5′-O-bis-(benzoxy-L-alaninyl)-phosphate]
[3]
  EC50: > 100 µM
Feline herpes virus
  EC50: > 100 µM

## C[C@H](NP(=O)(N[C@@H](C)C(=O)OCc1ccccc1)OC[C@H]1O[C@@H](n2cnc(C(N)=O)c2N)[C@H](O)[C@@H]1O)C(=O)OCc1ccccc1 [Compound 38, acadesine-5′-O-bis(benzoxy-L-alaninyl)-phosphate]
[2]
  MCC (cytotoxicity): >100 µM
Feline herpes virus
  EC50: > 100 µM

## COC(=O)[C@H](C)NP(=O)(N[C@@H](C)C(=O)OC)OC[C@H]1O[C@@H](n2cnc(C(N)=O)c2N)[C@H](O)[C@@H]1O [Compound 39, acadesine-5′-O-bis(methoxy-L-alaninyl)-phosphate]
[2]
  MCC (cytotoxicity): >100 µM
Feline herpes virus
  EC50: > 100 µM

## acadesine-5′-O-bis(2,2-dimethylpentoxy-L-alaninyl)-phosphate [Compound 40]
[6]
  IC50: > 250 µM
[7]
  EC50: > 100 µM
[8]
  IC50: > 250 µM
[9]
  EC50: > 100 µM
[2]
  MCC (cytotoxicity): >100 µM
[10]
  IC50: > 250 µM
HeLa/TK− cells
  IC50: > 250 µM
[11]
  EC50: > 100 µM
Feline herpes virus
  EC50: > 100 µM
